Experiment: Light-fastness of ink jet prints on Xerox Acid paper faded in a weatherometer (colour difference ΔE)
Format: physicochemical
Protocol: Each ink was prepared by dissolving the Dye shown in the second column of Table 1 (0.35 g) in water (8.45 g) by adding ammonia and adjusting the pH to 9.5. 2-pyrrolidone (0.5 g), thiodiglycol (0.5 g) and Surfynol 465 (0.2 g) were then added and the mixture was stirred at ambient temperature. The resulting solution was filtered through a 0.45 μm filter to give the ink.
Each ink shown in Table 1 was loaded into a HP 560 ink jet printer and was applied to Xerox Acid paper using the ink jet printer. When the resulting prints had dried a portion of the print was mounted, half covered, and faded in an Atlas Ci35a weatherometer.
The light-fastness of the prints was assessed by measuring the colour difference (ΔE) between the faded and unfaded portions of the print using an X-Rite 939 spectrodensitometer. The time shown in the column marked ΔE in Table 1 refers to the number of hours the print was faded for in the weatherometer.
A low ΔE value indicates a small colour change after fading in the weatherometer and therefore a high light-fastness.
The light-fastness of Dyes (A) and (B) and the individual sodium and lithium salts thereof were measured as described in Example 1; namely by ink jet printing an ink containing the each dye onto Xerox Acid paper and fading the prints using an Xrite Weatherometer.

COc1cc(N=Nc2cccc(S(=O)(=O)O)c2)ccc1NC(=O)Nc1ccc(N=Nc2cccc(S(=O)(=O)O)c2)cc1OC [Comparative (3), C.I. Direct Yellow 132]
ΔE (50 hours) (ink with 3.5 parts dye printed on Xerox Acid paper, faded 50 hours in Atlas Ci35a weatherometer, low ΔE = high light-fastness): 10.77 | Light-Fastness (after 50 hours) (measured as in Example 1 (ΔE), ink jet print on Xerox Acid paper, 50 hours of fading): 11

From patent US6395885B1, “Use of lithium salts of anionic dyes to enhance their light-fastness” (Avecia Limited, priority 1998, dated 2002)
